Data from patent US4686206A, “Composition for activating function of phagocytes” (Sunstar Kabushiki Kaisha, priority 1984, dated 1987).

Experiments:
neutrophils [1] = assay: Random migration of human neutrophils (Boyden chamber, PBS in lower part); assay type: cell-based; details: Neutrophil, 1 μg/ml, 15 min preincubation, 1 to 3 hours at 37° C., relative to control = 100%, read-out: random motoricity
Procedure: (§1) Neutrophils were separated from human peripheral blood and the effect of various tocopherylglycosides on random migration and chemotaxis of the neutrophils were measured by using Boyden chambers.
(§2) Tocopherol or a tocopheryl glycoside dissolved in 1% dimethylsulfoxide was added to a suspension containing 2.5×10^6 cells/ml of neutrophils so that a concentration of tocopherol or the tocopheryl glycoside was 1 μg/ml. After 15 minutes incubation at 37° C., the mixture was added to the upper part of the chamber. To the lower part of the chamber was added PBS in case of measuring random migration, or added 2×10^-8 M of N-formyl-methionyl-leucyl-phenylalanine in case of measuring chemotaxis. Then, the chamber was incubated at 37° C. for 1 to 3 hours. After incubation, the filter was fixed and stained with hematoxylin, and then the number of neutrophils migrated to the bottom of the filter was counted by using a microscope. As a control, the same procedure was repeated except that tocopherol or the tocopheryl glycoside was not added. In Table 1, the relative percentage of the counting obtained by addition of tocopherol or the tocopheryl glycoside is shown by taking the counting of the control as 100%.

[2] = system: Pseudomonas aeruginosa (P-1 strain, Ikaken); assay: In vivo test to Pseudomonas aeruginosa (survival of infected mice); design: species or system ICR mice; details: 1 mg/kg i.v. once a day for three days; 2.5×10^7 cells P. aeruginosa i.p.; after 24 hours; control 0%
Procedure: An aqueous injectable solution of dl-α-tocopheryl glucoside or dl-α-tocopheryl mannoside (see Example 3) was intravenously injected to ICR mice (body weight: 20 to 25 g, 10 mice per a group (5 female mice and 5 male mice)) once a day (dose: 1 mg/kg) for three days continuously. After the final injection, 2.5×10^7 cells of Pseudomonas aeruginosa (P-1 strain, Ikaken) were injected i.p. and the percentage of survival animuls was determined after 24 hours. As a control, the same procedure was repeated except that an equal amount of distilled water was used instead of the tocopheryl glycoside and the percentage of survival animals was determined. As the result, the percentage of survival of the control group was 0%, whereas that of the group injected with dl-α-tocopherylglucoside or dl-α-tocopherylmannoside was 20%, respectively.

[3] = Acute toxicity (LD50) in rat; details: in vivo
neutrophils [4] = assay: Chemotaxis of human neutrophils (Boyden chamber, N-formyl-methionyl-leucyl-phenylalanine in lower part); assay type: cell-based; details: Neutrophil, 1 μg/ml, 2×10^-8 M N-formyl-methionyl-leucyl-phenylalanine, 1 to 3 hours at 37° C., relative to control = 100%
Procedure: as §1, §2

neutrophils [5] = assay: Phagocytosis of neutrophils (opsonized FITC-labeled Staphylococcus aureus IFO 13276); assay type: cell-based; details: Homo sapiens, Neutrophil, 0.25 h; 1 μg/ml; 15 min at 37° C.; relative to control = 100%
Procedure: Neutrophils were separated from human peripheral blood and a suspension containing 2.5×10^6 cells/ml of neutrophils was prepared. Tocopherol or a different tocopheryl glycoside was added to 900 μl of this suspension so that the concentration of tocopherol or the tocopheryl glycoside was 1 μg/ml and the mixture was incubated at 37° C. for 15 minutes.
The suspension (100 μl) containing 1×10^9 cells/ml of opsonized Staphylococcus aureus (IFO 13276) labeled with fluorescein isothiocyanate was added to the mixture. The resulting mixture was incubated at 37° C. for 15 minutes. Then, the number of cells incorporated into 100 cells of neutrophils was counted by using a fluorescence microscope. As a control, the same procedure was repeated except that tocopherol or the tocopheryl glycoside was not added. In Table 2, the relative percentage of the counting obtained by addition of tocopherol or the tocopheryl glycoside is shown by taking the counting of the control as 100%.

Row | Structure (SMILES) | activity at 1 µg/mL (neutrophils [1]) [%] | percentage of survival [2] [%] | LD50 ([3]; ip) [mg/kg] | LD50 ([3]; po) [mg/kg] | activity at 1 µg/mL (neutrophils [4]) [%] | activity at 1 µg/mL (neutrophils [5]) [%]
1 | Cc1c(C)c2c(c(C)c1OC1O[C@H](CO)[C@@H](O)[C@H](O)[C@H]1O)CCC(C)(CCCC(C)CCCC(C)CCCC(C)C)O2 (mixture of isomers) [dl-α-Tocopherylglucoside, dl-α-tocopherylglucoside] | 98 ± 34 | 20 | ≥ 500 | ≥ 5000 | 140 ± 6 | 168 ± 31
2 | Cc1c(C)c2c(c(C)c1O[C@@H]1O[C@H](CO)[C@@H](O)[C@H](O)[C@@H]1O)CCC(C)(CCCC(C)CCCC(C)CCCC(C)C)O2 (mixture of isomers) [dl-α-Tocopherylmannoside] | 71 ± 16 | 20 | ≥ 500 | ≥ 5000 | 168 ± 3 | 219 ± 21
3 | Cc1c(C)c2c(c(C)c1OC1O[C@H](CO)[C@H](O)[C@H](O)[C@H]1O)CCC(C)(CCCC(C)CCCC(C)CCCC(C)C)O2 (mixture of isomers) [dl-α-Tocopherylgalactoside, reference compound] | 64 ± 8 |  |  |  | 85 ± 3 | 112 ± 9
4 | Cc1c(C)c2c(c(C)c1O)CCC(C)(CCCC(C)CCCC(C)CCCC(C)C)O2 (racemic) [dl-α-Tocopherol, reference compound] | 82 ± 12 |  |  |  | 94 ± 5 | 164 ± 16
